From US20020049173A1, “Alteration of cellular behavior by antisense modulation of mRNA processing” (priority 1999, published 2002)
In the oligonucleotide strings, read from the 5' end, every base follows the letter of its sugar. An asterisk marks phosphorothioate; unmarked linkages are phosphodiester. Other units and linkages are bracketed, terminal groups are in braces. A string of capitals states the bases alone. e = 2'-O-(2-methoxyethyl) (MOE); [5mC] = 5-methylcytosine

Assays:
[1] = system: murine IL-5 receptor α mRNA, membrane form; experiment: Membrane IL-5 receptor α mRNA by Northern blot in BCL1 cells; assay type: cell-based, mouse; settings: for % control membrane IL-5 Rα / % inhib'n membrane IL-5 Rα: BCL1 cells, 10 μM, 24 hours, uniform 2′-MOE; for % INHIB'N MEMBRANE IL-5 RECEPTOR: 10 μM dose, exon-exon boundary oligonucleotides
From the text: (§1) Murine BCL1 cells were chosen for screening antisense oligonucleotides targeted to murine IL-5 receptor α. These are B-cell leukemia cells derived from a spontaneously arising tumor of BALB/c origin, and proliferate in response to murine or human IL-5. This is a CD5+line which resembles a subset of human chronic lymphocytic leukemia tumors and secretes IgM upon lipopolysaccharide stimulation. Cells were obtained from the American Type Culture Collection and cultured in RPMI 1640 medium supplemented with 10% heat-inactivated fetal bovine serum (Sigma Chemical Co., St. Louis, Mo.), 10 mM Hepes, pH 7.2, 50 μM 2-ME, 2 mM L-glutamine, 100 U/ml penicillin and 100 μg/ml streptomycin (Gibco, Grand Island, N.Y.).
(§2) The effect of these compounds on both membrane and soluble forms of murine IL-5 receptor α were measured and are shown in Table 1B. Oligonucleotides were screened in BCL1 cells at a dose of 10 μM and IL-5 receptor α mRNA was measured by Northern blot. Percent inhibition is compared to untreated (no oligo) control.
(§3) Total BCL1 cellular RNA was isolated using the RNeasy™ kit (Qiagen, Santa Clara Calif.) . Northern blotting was performed using standard methods. The cDNA probes were generated from oligonucleotides matching the exon sequences of either exons 2, 8, 9 or 10. Signals were quantitated using a Molecular Dynamics PhosphorImager.

[2] = system: murine IL-5 receptor α mRNA, soluble form; experiment: Soluble IL-5 receptor α mRNA by Northern blot in BCL1 cells; assay type: cell-based, mouse; settings: for % control soluble IL-5 Rα: BCL1 cells, 10 μM, 24 hours, uniform 2′-MOE; for % INHIB'N SOLUBLE IL-5 RECEPTOR: 10 μM dose, exon-exon boundary oligonucleotides
From the text: as §1, §2, §3

human bcl-x mRNA [3] = experiment: Total bcl-x mRNA and bcl-xs/bcl-xl ratio in A549 cells, RNase protection; assay type: cell-based; settings: for bcl-xs/bcl-xl: 200 nM oligonucleotide (Table 15); for ratio of bcl-xs/bcl-xl: Oligo Concentration 200 (unit not given)
From the text: (§4) In accordance with the present invention, a series of oligonucleotides were designed to target different regions of human bcl-x RNA, using published sequences (Boise, L. H., et al., 1993, Cell 74, 597-608; Genbank Accession No. L20121, locus name “HSBCLXL,” incorporated herein as SEQ ID NO: 39). Antisense oligonucleotides were designed to target areas of exon 1 and exon 2 of human bcl-x, particularly around the exon 1/exon 2 splice site and in sequence regions present in bcl-xl but not in bcl-xs. All backbone linkages are phosphorothioates; All 2′MOE cytosines are 5-methylcytosines.
(§5) Oligonucleotides were evaluated for their respective effects on bcl-xs and bcl-xl3 mRNA levels in A549 cells along with total bcl-x mRNA levels, using the RIBOQUANT™ RNase protection kit (Pharmingen, San Diego Calif.). All assays were performed according to manufacturer's protocols.
(§6) A “walk” was done in this region with 20mer 2′-MOE phosphorothioate oligonucleotides targeted to sequences whose 5′ ends were 24, 26, 29, 31, 33, 37, 39, 41, 43, 44, 45 and 47 bases upstream of the splice site. These oligonucleotides were screened as before at a dose of 200 nM oligonucleotide for effect on short and long bcl-x transcripts.

human bcl-x mRNA [4] = experiment: as above; assay type: cell-based
human bcl-xl mRNA = experiment: bcl-xl mRNA in A549 cells, RIBOQUANT RNase protection; assay type: cell-based; settings: 200 nM oligonucleotide (Table 15)
From the text: as §4, §5, §6

human bcl-xs mRNA = experiment: bcl-xs mRNA in A549 cells, RIBOQUANT RNase protection; assay type: cell-based; settings: 200 nM oligonucleotide (Table 15)
From the text: as §4, §5, §6

[5] = Oligo Concentration 50 (unit not given)
[6] = Oligo Concentration 100 (unit not given)
[7] = Oligo Concentration 400 (unit not given)
[8] = Oligo Concentration 600 (unit not given)

Row | Substance | bcl-xs/bcl-xl (human bcl-x mRNA [3]; A549 cells) | % CONTROL bcl-xl (human bcl-xl mRNA) [%] | % CONTROL bcl-xs (human bcl-xs mRNA) [%] | further results
1 | 21758 (eT*eG*e[5mC]*eA*eG*eA*eT*eG*eA*eG*eT*eG*eA*eG*eA*eA*eG*eA*eT*eT; splice-switching) [compound 21758] |  |  |  | % control membrane IL-5 Rα [1]: 31%; % inhib'n membrane IL-5 Rα [1]: 69%; % control soluble IL-5 Rα [2]: 116%
2 | 21759 (eA*e[5mC]*eT*e[5mC]*eT*eG*e[5mC]*eA*eG*eA*eT*eG*eA*eG*eT*eG*eA*eG*eA*eA; splice-switching) [compound 21759] |  |  |  | % control membrane IL-5 Rα [1]: 34%; % inhib'n membrane IL-5 Rα [1]: 66%; % control soluble IL-5 Rα [2]: 134%
3 | 21760 (e[5mC]*eT*eA*e[5mC]*eA*e[5mC]*eT*e[5mC]*eT*eG*e[5mC]*eA*eG*eA*eT*eG*eA*eG*eT*eG) [compound 21760] |  |  |  | % control membrane IL-5 Rα [1]: 55%; % inhib'n membrane IL-5 Rα [1]: 45%; % control soluble IL-5 Rα [2]: 116%
4 | 21847 (eG*eT*eT*eT*eT*eT*e[5mC]*e[5mC]*eT*eT*e[5mC]*eT*eG*eA*eA*eT*eG*eT*eG*eA; antisense) [compound 21847] |  |  |  | % INHIB'N MEMBRANE IL-5 RECEPTOR [1]: 23%; % INHIB'N SOLUBLE IL-5 RECEPTOR [2]: 20%
5 | 21849 (e[5mC]*eT*eT*eT*e[5mC]*e[5mC]*eT*eT*eT*e[5mC]*e[5mC]*e[5mC]*eA*e[5mC]*eA*eT*eA*eA*eA*eT) [compound 21849] |  |  |  | % INHIB'N MEMBRANE IL-5 RECEPTOR [1]: 70%; % INHIB'N SOLUBLE IL-5 RECEPTOR [2]: 5%
6 | 21851 (eT*eA*eA*eA*eT*eG*eA*e[5mC]*eA*e[5mC]*eA*e[5mC]*eT*e[5mC]*eT*eG*e[5mC]*eA*eG*eA; antisense) [compound 21851] |  |  |  | % INHIB'N MEMBRANE IL-5 RECEPTOR [1]: 61%; % INHIB'N SOLUBLE IL-5 RECEPTOR [2]: 0%
7 | 21853 (eT*eA*eA*eA*eT*eG*eA*e[5mC]*eA*e[5mC]*e[5mC]*e[5mC]*eA*e[5mC]*eA*eT*eA*eA*eA*eT; antisense) [compound 21853] |  |  |  | % INHIB'N MEMBRANE IL-5 RECEPTOR [1]: 14%; % INHIB'N SOLUBLE IL-5 RECEPTOR [2]: 45%
8 | 21855 (eT*e[5mC]*eG*eA*eA*eG*eG*eT*eT*eT*e[5mC]*e[5mC]*eA*e[5mC]*eA*eT*eA*eA*eA*eT) [compound 21855] |  |  |  | % INHIB'N MEMBRANE IL-5 RECEPTOR [1]: 14%; % INHIB'N SOLUBLE IL-5 RECEPTOR [2]: 25%
9 | 22783 (e[5mC]*eT*eG*eG*eA*eT*e[5mC]*e[5mC]*eA*eA*eG*eG*e[5mC]*eT*e[5mC]*eT*eA*eG*eG*eT) [compound 22783] | 5.25 | 47 | 247 | bcl-xs/bcl-xl (%) (human bcl-x mRNA [3]; A549 cells, no oligo 17.56): 293.1%; ratio of bcl-xs/bcl-xl (human bcl-x mRNA [3]): 7; ratio of bcl-xs/bcl-xl (human bcl-x mRNA [4]; [5]): 3; ratio of bcl-xs/bcl-xl (human bcl-x mRNA [4]; [6]): 2; ratio of bcl-xs/bcl-xl (human bcl-x mRNA [4]; [7]): 24; ratio of bcl-xs/bcl-xl (human bcl-x mRNA [4]; [8]): 28
10 | 23172 (GTTCCTGGCCCTTTCGGCTC; listed as DNA, chemistry not fully specified) [compound 23172] |  |  |  | bcl-xs/bcl-xl* (change from the no-oligo ratio 17.56, which reads 1) (human bcl-x mRNA [3]; A549 cells): 1.1
11 | 26066 (ATCCAAGGCTCTAGGTGGTC; all 2'-MOE, all phosphorothioate, methylation of C not given here) [compound 26066] | 15.38 | 26 | 400 | ratio of bcl-xs/bcl-xl (human bcl-x mRNA [3]): 24; ratio of bcl-xs/bcl-xl (human bcl-x mRNA [4]; [5]): 6; ratio of bcl-xs/bcl-xl (human bcl-x mRNA [4]; [6]): 11; ratio of bcl-xs/bcl-xl (human bcl-x mRNA [4]; [7]): 25
12 | 26067 (GGATCCAAGGCTCTAGGTGG; all 2'-MOE, all phosphorothioate, methylation of C not given here) [compound 26067] | 6.59 | 32 | 211 | 
13 | 26069 (antisense TCTCCTGGATCCAAGGCTCT; all 2'-MOE, all phosphorothioate, methylation of C not given here) [compound 26069] | 5.80 | 40 | 232 | 
14 | 26070 (antisense GTTCTCCTGGATCCAAGGCT; all 2'-MOE, all phosphorothioate, methylation of C not given here) [compound 26070] | 6.54 | 37 | 242 | 
15 | 26071 (antisense GCCGTTCTCCTGGATCCAAG; all 2'-MOE, all phosphorothioate, methylation of C not given here) [compound 26071] | 7.97 | 37 | 295 | 
16 | 26072 (antisense CCGCCGTTCTCCTGGATCCA; all 2'-MOE, all phosphorothioate, methylation of C not given here) [compound 26072] | 5.38 | 42 | 226 | 
17 | 26080 (antisense CTGGTTACACGACTCCAGGT; mismatch control, further chemistry not given here) [compound 26080] |  |  |  | ratio of bcl-xs/bcl-xl (human bcl-x mRNA [3]): <1; ratio of bcl-xs/bcl-xl (human bcl-x mRNA [4]; [7]): 1; ratio of bcl-xs/bcl-xl (human bcl-x mRNA [4]; [8]): 3
18 | SEQ ID NO 54: CTCTAGGTGGTCATTCAGGT; 20mer 2′-MOE phosphorothioate, no ISIS # printed; Exon 1L 652-671 (all 2'-MOE, all phosphorothioate, methylation of C not given here) | 7.14 | 42 | 300 | 
19 | SEQ ID NO 55: GGCTCTAGGTGGTCATTCAG; 20mer 2′-MOE phosphorothioate, no ISIS # printed; Exon 1L 654-673 (all 2'-MOE, all phosphorothioate, methylation of C not given here) | 6.72 | 47 | 316 | 
20 | SEQ ID NO 57: AAGGCTCTAGGTGGTCATTC; 20mer 2′-MOE phosphorothioate, no ISIS # printed; Exon 1L 656-675 (all 2'-MOE, all phosphorothioate, methylation of C not given here) | 7.64 | 53 | 405 | 
21 | SEQ ID NO 58: CCAAGGCTCTAGGTGGTCAT; 20mer 2′-MOE phosphorothioate, no ISIS # printed; Exon 1L 658-677 (all 2'-MOE, all phosphorothioate, methylation of C not given here) | 10.42 | 26 | 271 | 
